Experimental data reported in patent US8785483B2, “Methods for treating COPD” (The Board of Regents of the University of Texas System, priority 2010, dated 2014).

Assays:
ERK1/2 = assay: Western blot of ERK1/2 phosphorylation in airway epithelial monolayer; assay type: cell-based, human; conditions: ALI monolayer, AR inhibitor 24 h prior to IL-13
Experimental: FIG. 7. AR inhibition prevents IL-13-induced phosphorylation of JAK-1, ERK1/2 and STAT-6 in airway epithelial monolayer. The ciliated monolayer of airway cells at ALI was treated with AR inhibitor for 24 h and stimulated with IL-13 for different time periods as indicated. At the end of incubation, cells were lysed and cell lysate was subjected to western blotting using antibodies against phosphorylated and nonphosphorylated JAK-1, ERK1/2 and STAT-6 to analyze the activation of these signaling proteins. A representative blot is shown (n=4). #p<0.001 vs Control; *p<0.01 and **p<0.001 vs IL-13. For air-liquid interface (ALI) culture, SAEC were seeded at 8.5×10^4 cells/12-mm-diameter PET transparent insert with […] pores (12-well millicell culture insert; Millipore) and pre-coated with rat tail collagen type-1 (Sigma-Aldrich). The cells were grown submerged in the differentiation medium as described earlier by Zhen et al. (Am J Respir Cell Mol Biol 36: 244-253, 2007). […] Protein levels were determined using Bradford reagent (Biorad, Hercules, Calif.). […] The blots were then washed, exposed to HRP-conjugated secondary antibodies (1:5,000 dilution) for 1 h, and the antigen-antibody complex was detected by enhanced chemiluminescence (Amersham Pharmacia Biotech, Piscataway, N.J., USA). […]

Muc5AC = Muc5AC ELISA in culture medium; assay type: cell-based, human; conditions: airway epithelial monolayer, IL-13 48 h
Experimental: FIGS. 5A-5B. AR inhibition prevents IL-13-induced goblet cell metaplasia and expression of Muc5AC in airway epithelial monolayer. (A) The well-differentiated airway epithelial cells at air-liquid interface (ALI) were incubated with IL-13 for 48 h without or with AR inhibitor, fidarestat. The monolayer was fixed as described and immunohistochemistry using Muc5AC antibodies was performed on the sections. A representative photomicrograph is shown (n=4); magnification 400×. […] (C) The airway epithelial monolayer was incubated with IL-13 submerged in basal medium for 48 h in the absence and presence of AR inhibitor, fidarestat. The culture medium was collected from the top chamber and utilized for determination of Muc5AC by an ELISA, (n=4); *p<0.005 vs Control; **p<0.01 vs IL-13. For air-liquid interface (ALI) culture, SAEC were seeded at 8.5×10^4 cells/12-mm-diameter PET transparent insert with […] pores (12-well millicell culture insert; Millipore) and pre-coated with rat tail collagen type-1 (Sigma-Aldrich). The cells were grown submerged in the differentiation medium as described earlier by Zhen et al. (Am J Respir Cell Mol Biol 36: 244-253, 2007). […] Muc5AC levels in the culture medium were assessed by ELISA using commercially available human anti-Muc5AC ELISA essentially as described by the manufacturer (Cosmo Bio USA; Carlsbad, Calif.).

With `NC(=O)[C@@H]1C[C@]2(NC(=O)NC2=O)c2cc(F)ccc2O1` [fidarestat, (2S,4S)-2-aminoformyl-6-fluoro-spiro[chroman-4,4′-imidazolidine]-2′,5′-dione] the “IL-13-induced phosphorylation of ERK1/2” value (ERK1/2) was “decreased significantly” and the “prevention of IL-13-induced secretion of Muc5AC in the medium” value (Muc5AC) was ~80%.
